Measurements taken from article PMC4608580, “Synthesis and Evaluation of Biological Activity of Antimicrobial – Pro-Proliferative Peptide Conjugates” (PLoS ONE, 2015).
Where two headings read alike, the source gives them in different places. No end group written: not given here.

Tests used:
[1] = tested on: human primary dermal fibroblasts; experiment: Cell proliferation assay (MTT); assay type: cell-based; details: 72 h, serum-free DMEM, peptide at 1–25 μg/mL
Experimental: Biopsies of healthy human skin were obtained aseptically from three donors (47–69 years old) undergoing circumcision after obtaining their written informed consent. All the procedures were approved by the Ethics Committee of Medical University of Gdansk (NKEBN/483/2011. Issued: 2011-12-19). The samples were washed several times with sterile PBS (Sigma-Aldrich, Germany) containing antibiotic (200 U/mL penicillin and 200 μg/mL streptomycin), after which, the subcutaneous tissue was cut off with a sharp blade. The resulting sheets were cut into small fragments, washed two times with sterile PBS and treated with 6 U/mL dispase II (BD, USA) overnight at 4°C to separate epidermis and dermis. The dermis was then digested with 1.0 mg/mL collagenase type I (from Clostridium histolyticum Sigma-Aldrich, Germany) for 2 hours at 37°C to isolate fibroblasts. Cells were used between the 2nd and 4th passage in all experiments.
(§1) In our study two kind of cells were used: immortalized human HaCaT keratinocytes (DKFZ Heidelberg, Germany) and primary dermal fibroblasts obtained from 3 healthy donors. Both types of the used cell lines were grown in Dulbecco's modified Eagle's medium (DMEM) (Sigma–Aldrich, Germany), that contained […] of glucose, […] of L-glutamine, sodium pyruvate and sodium bicarbonate. Additionally, medium was supplemented with 10% of FCS (fetal calf serum, Sigma-Aldrich, Germany), 100 U/mL of penicillin and 100 μg/mL streptomycin (Sigma-Aldrich, Germany). The cells were grown in culture dishes (BD, USA) under standard conditions in a humidified atmosphere with 5% CO2 at 37°C and medium was changed every 2 days.
The fibroblasts and keratinocytes were seeded at density of 4500 and 6000 cells per well, respectively, into 96-well plates suspended in a medium supplemented with 10% of FCS. After 24 h the media were exchanged with serum- and antibiotic- free DMEM and tested peptides dissolved in PBS were added yielding final concentration ranging from 1 to 50 μg/mL. Cells were incubated for the next 24 hours, when the medium was exchanged again and fresh portion of peptides (used at the same concentrations as previously) was added. Incubation was continued for the next 48 hours (the overall time of cell exposition to peptide was 72 h). […] After 15 min when the purple crystals of formazan were fully solubilized, absorbance was read at 570 nm with a plate reader. […]
Fig 1 Pro-proliferative activity of the tested peptides towards human keratinocytes (A) and fibroblasts (B). […] The data represents results of MTT assay expressed as the percentage of the cell viability in comparison to their control sample (cells incubated in serum-free DMEM without tested peptides), additional positive control corresponds to the cells incubated in the presence of 10% FCS. […]

[2] = tested on: immortalized human HaCaT keratinocytes; experiment: Cell proliferation assay (MTT); assay type: cell-based; details: 72 h, serum-free DMEM; for Effect on HaCaT cell viability/proliferation (MTT), in words: whole range 1–50 μg/mL, vs. control without peptide, triplicate; for Effect on HaCaT proliferation (MTT), in words: lower concentrations, 1 or 10 μg/mL
Experimental: as §1
The fibroblasts and keratinocytes were seeded at density of 4500 and 6000 cells per well, respectively, into 96-well plates suspended in a medium supplemented with 10% of FCS. After 24 h the media were exchanged with serum- and antibiotic- free DMEM and tested peptides dissolved in PBS were added yielding final concentration ranging from 1 to 50 μg/mL. Cells were incubated for the next 24 hours, when the medium was exchanged again and fresh portion of peptides (used at the same concentrations as previously) was added. Incubation was continued for the next 48 hours (the overall time of cell exposition to peptide was 72 h). At the end of the experiment cells were treated with 20 μL of MTT (5 mg/mL in PBS). After 3 h at 37°C under 5% CO2 medium was discarded and replaced by 6mM HCl in isopropanol. After 15 min when the purple crystals of formazan were fully solubilized, absorbance was read at 570 nm with a plate reader. The optical density reflects the level of cell viability as MTT is converted in purple formazan product only in the presence of viable mitochondria of the living cells.
Fig 1 Pro-proliferative activity of the tested peptides towards human keratinocytes (A) and fibroblasts (B). Cells were incubated for 72 hours in serum-free DMEM medium in the presence of peptides applied at concentrations of 1,10, 25 and 50 μg/mL, respectively. The data represents results of MTT assay expressed as the percentage of the cell viability in comparison to their control sample (cells incubated in serum-free DMEM without tested peptides), additional positive control corresponds to the cells incubated in the presence of 10% FCS. All experiments were performed independently in triplicate. *P < 0.05, **P < 0.01, ***P < 0.001 vs. control.
In order to evaluate a long-term effect of peptides, experiments were carried out for 72 hours. Before addition of the tested compounds, the cell medium was exchanged for the fresh one not containing any serum or antibiotic.

[3] = tested on: B. subtilis; assay type: cell-based; details: 24 h
Experimental: (§2) Luria-Bertani broth (LB) and Sabouraud Dextrose broth (SB) (Biocorp, Poland) were used for cultivation of bacteria and fungi strains, respectively. Antimicrobial activity of peptides was analyzed through determination of MIC (minimal inhibitory concentration) parameter according to the standard microdilution technique performed on 96-well plates. Mueller-Hinton broth (MHB) was used as the working medium for all bacterial strains, while in case of fungi it was additionally supplemented with 2% glucose.
(§3) Briefly, inoculum was prepared from freshly grown cultures of microorganisms being at their exponential phase of growth. Each well of 96-well plates containing 100 μL of serially diluted peptides in PBS (phosphate buffer saline) at concentration ranging from 2 to 250 μg/mL were inoculated with 100 μL of approximately 10^5 CFU/mL of bacterial suspension or about 2.5 x 10^3 CFU/mL of fungi suspended in a double concentrated Mueller-Hinton broth (supplemented with 2% glucose for Candida spps.). Then plates were incubated overnight at 37°C and absorbance was read at 590 nm after 24 h. Cultures without peptide were treated as positive control, while uninoculated Mueller-Hinton broth was defined as negative control. All measurements were run at least in triplicate.
(§4) All peptides were screened against the wide range of microorganisms, including Gram-negative, Gram-positive bacteria and fungi from Candida species (Table 2). Broth microdilution method for MIC determination was used as a standard procedure. All assays were performed on liquid Mueller-Hinton broth, which was additionally supplemented with 2% glucose when fungicidal activity towards Candida spps. was analyzed.

[4] = tested on: B. cereus; assay type: cell-based; details: 24 h
Experimental: as §2, §3, §4

[5] = tested on: Staphylococcus epidermidis (PCM 2118); assay type: cell-based
From the text: (§5) Escherichia coli (PCM 2057), Staphylococcus aureus (PCM 2054), Staphylococcus epidermidis (PCM 2118), Pseudomonas aeruginosa (PCM 499) were obtained from Polish Collection of Microorganisms. Fungi strains Candida albicans (CCM 8186), Candida glabrata (CCM 8270), Candida parapsilosis (CCM 8260), Candida krusei (CCM 8271), Candida tropicalis (CCM 8264) were acquired from Czech Collection of Microorganisms.
as §2, §3, §4

[6] = tested on: Candida tropicalis (CCM 8264); assay type: cell-based; details: broth microdilution, Mueller-Hinton broth + 2% glucose, about 2.5 x 10^3 CFU/mL, 37°C, 24 h, absorbance 590 nm, at least triplicate
From the text: as §5, §2, §3, §4

[7] = tested on: Candida parapsilosis (CCM 8260); assay type: cell-based; details: broth microdilution, Mueller-Hinton broth + 2% glucose, about 2.5 x 10^3 CFU/mL, 37°C, 24 h, absorbance 590 nm, at least triplicate
From the text: as §5, §2, §3, §4

[8] = tested on: Candida glabrata (CCM 8270); assay type: cell-based; details: broth microdilution, Mueller-Hinton broth + 2% glucose, about 2.5 x 10^3 CFU/mL, 37°C, 24 h, absorbance 590 nm, at least triplicate
From the text: as §5, §2, §3, §4

[9] = tested on: Candida krusei (CCM 8271); assay type: cell-based; details: broth microdilution, Mueller-Hinton broth + 2% glucose, about 2.5 x 10^3 CFU/mL, 37°C, 24 h, absorbance 590 nm, at least triplicate
From the text: as §5, §2, §3, §4

[10] = tested on: Pseudomonas aeruginosa (PCM 499); assay type: cell-based
From the text: as §5, §2, §3, §4

[11] = tested on: Escherichia coli (PCM 2057); assay type: cell-based
From the text: as §5, §2, §3, §4

[12] = tested on: Staphylococcus aureus (PCM 2054); assay type: cell-based
From the text: as §5, §2, §3, §4

[13] = tested on: Candida albicans (CCM 8186); assay type: cell-based; details: broth microdilution, Mueller-Hinton broth + 2% glucose, about 2.5 x 10^3 CFU/mL, 37°C, 24 h, absorbance 590 nm, peptide 2 to 250 μg/mL, at least triplicate
From the text: as §5, §2, §3, §4

[14] = Circular dichroism, alpha-helical content; assay type: physicochemical; details: CD, mean residue ellipticity at 222 nm (Eq 1), peptide 0.4 mg/ml in 30 mM SDS, room temperature
Experimental: Circullar dichroism spectra of analyzed compounds were recorded on a Jasco J-815 spectropolarimeter using a quartz cell of 1 mm path length between 195–260 nm at room temperature. Peptides at concentration of 0.4 mg/ml were dissolved in water or 30 mM SDS solution. SDS micelle system was used as the simplified model of negatively charged lipid membrane. On the basis of the obtained results the alpha-helical content was determined from the mean residue ellipticities at 222 nm according to Eq 1: %Helix=([θ]obs/([θ]helixx(1−2.57/l))x100, (1) where [θ] obs is the experimentally observed mean-residue ellipticity at 222 nm, [θ]helix is the theoretical ellipticity of peptide of infinite length with a 100% helix population, taken as -39 500 deg·cm^2/dmol, and l is the number of peptide bonds.
Circular dichroism method was applied to obtain a basic information about the secondary structure of the synthesized compounds (with the exception of CAR, CAR3, DAL, CTEN2) in two chemical environments, water and 30 mM SDS. As expected, all the tested compounds in water adopted a random-coil structure, while in the presence of 30 mM SDS most of them formed α-helices with characteristic negative minima around 208 and 220 nm. […] The examples of CD spectra for selected peptides could be seen in supporting information (Figure A in S1 File). On the basis of the experimentally obtained values of the mean residue ellipticities of peptides at 222 nm their alpha-helical content was calculated according to the Eq 1 (Table 1).

[15] = broth microdilution, Mueller-Hinton broth, approximately 10^5 CFU/mL, 37°C, absorbance 590 nm, at least triplicate
[16] = broth microdilution, Mueller-Hinton broth, approximately 10^5 CFU/mL, 37°C, 24 h, absorbance 590 nm, at least triplicate

Row | Substance | Effect on HaCaT cell viability/proliferation (MTT), in words [2] | MIC B. subtilis [3, 15] | MIC B. cereus [4, 15] | MIC S. epidermidis [5, 16] | MIC C.tropicalis [6] | MIC C. parapsilosis [7] | MIC C.glabrata [8] | MIC C.krusei [9] | MIC P. aeruginosa [10, 16] | MIC E.coli [11, 16] | MIC S.aureus [12, 16] | MIC C. albicans [13] | α-helicity [14] | also measured
1 | EGLEPG [CTEN2] | non-toxic | – | – | – | – | – | – | – | – | – | – | – | – | Effect on fibroblast cell count (MTT), in words [1]: Increased cell count
2 | EGLEPG-PEG-IKKILSKIKKLLK-NH2 [CTEN2-PEG-LK6, conjugate of CTEN2 and LK6 joined by PEG-linker] | – | 7.8 µg/mL | >125 µg/mL | 7.8 µg/mL | 7.8 µg/mL | 125 µg/mL | >125 µg/mL | 15.6 µg/mL | >125 µg/mL | >125 µg/mL | >125 µg/mL | 125 µg/mL | 20% | –
3 | IKKILSKIKKLL-PEG-YAGFLR [DK5-PEG-DAL, conjugate of DK5 and dalargin joined by PEG-linker (8-amino-3,6-dioxaoctanoic acid)] | negative dose-response relationship | 7.8 µg/mL | >125 µg/mL | 7.8 µg/mL | 7.8 µg/mL | 2.0 µg/mL | >125 µg/mL | 7.8 µg/mL | >125 µg/mL | 7.8 µg/mL | >125 µg/mL | 100 µg/mL | 20% | –
4 | IKKILSKIKKLLK-NH2 [LK6, reference compound] | – | – | – | – | – | – | – | – | – | – | – | – | – | MIC B. subtilis [3]: 7.8 µg/mL; MIC B. cereus [4]: 50 µg/mL; MIC S. epidermidis ([5]; PCM 2118, 24 h): 7.8 µg/mL; MIC P. aeruginosa ([10]; PCM 499, 24 h): 25 µg/mL; MIC E.coli ([11]; PCM 2057, 24 h): >125 µg/mL; MIC S.aureus ([12]; PCM 2054, 24 h): 100 µg/mL
5 | KKVVFWVKFK-NH2 [KSLW, reference compound] | – | – | – | – | – | – | – | – | – | – | – | – | – | MIC B. subtilis [3]: 7.8 µg/mL; MIC B. cereus [4]: 50 µg/mL; MIC S. epidermidis ([5]; PCM 2118, 24 h): 7.8 µg/mL; MIC P. aeruginosa ([10]; PCM 499, 24 h): 25 µg/mL; MIC E.coli ([11]; PCM 2057, 24 h): 7.8 µg/mL; MIC S.aureus ([12]; PCM 2054, 24 h): 25 µg/mL
6 | YAGFLR [DAL, dalargin, synthetic Leu-enkephalin analogue, reference compound] | non-toxic | – | – | – | – | – | – | – | – | – | – | – | – | –
7 | ΒAHβAHβAH-PEG-IKKILSKIKKLL-NH2 [CAR3-PEG-DK5, conjugate of CAR3 and DK5 joined by PEG-linker] | – | 15.6 µg/mL | >125 µg/mL | 7.8 µg/mL | 7.8 µg/mL | 2.0 µg/mL | 125 µg/mL | 7.8 µg/mL | 50 µg/mL | >125 µg/mL | >125 µg/mL | 100 µg/mL | 27% | Effect on HaCaT proliferation (MTT), in words [2]: induced cell proliferation
8 | βAH-PEG-IKKILSKIKKLL-NH2 [CAR-PEG-DK5, conjugate of carnosine and DK5 joined by PEG-linker] | – | 3.9 µg/mL | 100 µg/mL | 3.9 µg/mL | <2 µg/mL | 31.3 µg/mL | 62.5 µg/mL | 3.9 µg/mL | 50 µg/mL | 100 µg/mL | 125 µg/mL | 15.6 µg/mL | 41% | Effect on HaCaT proliferation (MTT), in words [2]: induced cell proliferation
